Values quoted from earlier work as cited in patent US7858656B2, “Controlled release formulations containing an active ingredient, preferably melatonin and the method of preparation” (Ambros Pharma S.R.L., priority 2000, dated 2010).

Settings: in various species, including man

For `COc1ccc2[nH]cc(CCNC(C)=O)c2c1` [melatonin, N-acetyl-5-methoxytryptamine], the half-life of melatonin is given as 20 to 40 min.
